The CATMoS acute toxicity set (Mansouri et al. 2021)

Test: GHS categories as the set defines them, by LD50: 1 up to 5, 2 up to 50, 3 up to 300, 4 up to 2000, 5 above 2000 mg/kg
Conditions: rat; in vivo; po

OC[C@H]1O[C@@H](OC[C@H]2O[C@@H](O[C@@H]3[C@@H](O)[C@H](O)O[C@H](CO)[C@H]3O)[C@H](O)[C@@H](O[C@@H]3O[C@H](CO)[C@@H](O)[C@H](O)[C@H]3O)[C@@H]2O)[C@H](O)[C@@H](O)[C@@H]1O
GHS category: 4

CC(=O)OCC(=O)[C@@]1(OC(C)=O)[C@@H](C)C[C@H]2[C@@H]3C[C@H](F)C4=CC(=O)C=C[C@]4(C)[C@@]3(F)[C@@H](O)C[C@@]21C
GHS category: 5

CCC(=O)OCC(=O)[C@@]1(OC(=O)CC)[C@@H](C)C[C@H]2[C@@H]3CCC4=CC(=O)C=C[C@]4(C)[C@@]3(F)[C@@H](O)C[C@@]21C
GHS category: 5

COc1ccc([C@@H]2Sc3ccccc3NC(=O)[C@@H]2O)cc1
GHS category: 5

O=C1C=CC(=NNc2ccc(N=Nc3ccc(-c4ccc(NN=C5C=CC(=O)C(C(=O)O)=C5)cc4)cc3)c3ccc(S(=O)(=O)O)cc23)C=C1
GHS category: 5

O=C(OCCOCCO)c1cc(O)ccc1Nc1cccc(C(F)(F)F)c1
GHS category: 4

O=C(Nc1ccccc1SSc1ccccc1NC(=O)c1ccccc1)c1ccccc1
GHS category: 5

CCCCCCCCCCCCCCCOS(=O)(=O)O
GHS category: 5

O=C[C@H](O[C@@H](C=O)[C@@H](O)[C@H](O)[C@H](O)CO)[C@@H](O)[C@H](O)[C@H](O)CO
GHS category: 5

CCOC(=O)C(Cl)(Cl)Cl
GHS category: 5

CCO[C@@H]1O[C@H](C(COCc2ccccc2)OCc2ccccc2)[C@H](OCc2ccccc2)[C@H]1O (some centres undefined)
GHS category: 5

CCOC(=O)NC(=S)Nc1ccccc1NC(=S)NC(=O)OCC
GHS category: 5

O=C(O)CC(=O)C(=O)O
GHS category: 5

Cc1cccc(OC(=O)c2ccccc2OC(N)=O)c1
GHS category: 5

C[C@@H]1CCN(C(=O)[C@H](CCCNC(=N)N)NS(=O)(=O)c2cccc3c2NC[C@H](C)C3)[C@@H](C(=O)O)C1
GHS category: 5

NC(=O)CCNCCO
GHS category: 5

O=[N+]([O-])c1c(Cl)cccc1-c1c[nH]cc1Cl
GHS category: 5

CN(C(=O)CNCP(=O)(O)O)S(C)(=O)=O
GHS category: 2

NC(=O)c1ccc(NC(=O)c2ccc(N)cc2)cc1
GHS category: 5

CC12CCC3C(CC=C4C=C(N5CCCC5)CCC43C)C1CCC2=O (centres undefined)
GHS category: 5

CCOC(=O)C(=O)Nc1cc(OCCOCCOC)ncn1
GHS category: 4

COc1cc(NS(=O)(=O)c2ccc(N)cc2)ncn1
GHS category: 5

CC(C=O)(CO)CO
GHS category: 5

CCCCCCOC(=O)CC
GHS category: 5

CCCC/C=C/C=C\C=O
GHS category: 5

COC(=O)C1=C(C)NC(C)=C(C(=O)OC2COC3C(O)COC23)C1c1cccc([N+](=O)[O-])c1 (centres undefined)
GHS category: 5

c1ccc2oc(C3(Cn4ccnc4)OCCO3)cc2c1
GHS category: 4

CN1CC(O)N(c2cc(C(C)(C)C)on2)C1=O (centres undefined)
GHS category: 4

C=CC(C)(CCC=C(C)CC)OC(C)=O (centres undefined)
GHS category: 5

O=C(O)c1nc(C(Cl)(Cl)Cl)n(-c2ccc(Cl)cc2Cl)n1
GHS category: 5

C=CC(=O)OCCN(C)S(=O)(=O)C(F)(F)C(F)(F)C(F)(F)C(F)(F)F (racemic)
GHS category: 5

C[C@]12C[C@H]3O[C@H]3CC1CCC1C2CC[C@]2(C)C(=O)[C@@H](N3CCCC3)CC12 (some centres undefined)
GHS category: 5

CCCCCOc1ccc(-c2ccc(C#N)cc2)cc1
GHS category: 5

CN1OCC(=Cc2cc(C(C)(C)C)c(O)c(C(C)(C)C)c2)C1=O
GHS category: 4

CC(CCc1ccccc1)NCC(O)c1ccc(O)c(C(N)=O)c1 (centres undefined)
GHS category: 5

CCCCCCCCCCCCCCCC(=O)OC(C)C
GHS category: 5

CC(C)(c1ccccc1)C(C)(C)c1ccccc1
GHS category: 5

NC[C@H]1O[C@H](O[C@H]2[C@H](O[C@@H]3O[C@H](CO)[C@@H](O)[C@H]3O)C(O)[C@H](N)C[C@@H]2N)[C@H](N)[C@@H](O)[C@@H]1O (some centres undefined)
GHS category: 5

CO/N=C(/C(=O)N[C@@H]1C(=O)N2C(C(=O)O)=C(COC(C)=O)CS[C@H]12)c1csc(N)n1
GHS category: 5

O=[N+]([O-])c1cc2c(Nc3ccc(F)c(Cl)c3)ncnc2cc1O[C@H]1CCOC1
GHS category: 5

CCCCOC(=O)c1ccccc1N
GHS category: 5

C=C[Si](C)(C)O[Si](O[Si](C)(C)C=C)(O[Si](C)(C)C=C)O[Si](C)(C)C=C
GHS category: 5

CCC(=O)OC/C=C(/C)CCC=C(C)C
GHS category: 5

CCCCCCCCC=O
GHS category: 5

CC(=O)C[N+]1(CC(N)=O)C(=O)Sc2ccc(Cl)cc21 (centres undefined)
GHS category: 5

CC(C)=CCN(CC=C(C)C)CCC(C)(C#N)c1cccc2ccccc12 (centres undefined)
GHS category: 4

CCN(C(=O)CCCSc1nnnn1C)C1CCCCC1O (centres undefined)
GHS category: 4

C=CC(C)(CCC=C(C)C)OC(C)OCC (centres undefined)
GHS category: 5

CCOC(=O)c1cc(Br)ccc1OC(N)=O
GHS category: 5

CC(O)CCCCO (centres undefined)
GHS category: 5

COc1ccccc1-c1nc(C)c(C(N)=O)s1
GHS category: 5

CCCC=CCC1CCCC1=O (centres undefined)
GHS category: 5

C=C[Si](C)(C)O[Si](C)(C)C=C
GHS category: 5

CC(C)=CCC/C(C)=C/CC/C(C)=C/CCC(=O)OC/C=C(\C)CCC=C(C)C
GHS category: 5

CSc1nc2cc(Cl)ccc2o1
GHS category: 5

CCCCCCCCCCCCCCCCCC(=O)OCCOC(=O)CCCCCCCCCCCCCCCCC
GHS category: 5

CCCCCCCCCCCCCC[Si](C)(O[Si](C)(C)C)O[Si](C)(C)C
GHS category: 5

C=C(C)C(=O)OCCOC(=O)CC(C)=O
GHS category: 5

Cn1nnnc1SCCCC(=O)NC1CCCCC1
GHS category: 4

Nc1ccc(N)c(S(=O)(=O)O)c1
GHS category: 5

CCOC(/C=C(\C)CCC=C(C)C)OCC
GHS category: 5

CCCCCCCCCCCCCCCC[Si](OC)(OC)OC
GHS category: 5

N#CCCNCCCCCCNCCC#N
GHS category: 5

O=c1c2cc(Cl)ccc2[nH]c2cc3c(=O)c4cc(Cl)ccc4[nH]c3cc12
GHS category: 5

CC(C)(c1cc(Br)c(O)c(Br)c1)c1cc(Br)c(O)c(Br)c1
GHS category: 5

C=CC=CC=CC=CC=CC=CC=CC
GHS category: 5

CCn1cc[n+](C)c1
GHS category: 5

CC(O)(CC(=O)O)c1ccc(C2CCCCC2)c(Cl)c1 (centres undefined)
GHS category: 4

CCCCCCCCCCCCCCCC(=O)OC[C@@H](O)[C@H]1OC[C@H](O)[C@H]1O
GHS category: 5

O=C(Nc1ccc(Cl)cc1)NS(=O)(=O)c1ccc2c(c1)CCC2
GHS category: 4

COC(=O)CC(N)=S
GHS category: 4

O=C(CCS)OCC(COC(=O)CCS)(COC(=O)CCS)COC(=O)CCS
GHS category: 4

Cc1cc(Cc2cc(C)cc(C3CCCCC3)c2O)c(O)c(C2CCCCC2)c1
GHS category: 5

CC(=O)Nc1ccc(C2=NN(C(C)=O)C(C)Cc3cc4c(cc32)OCO4)cc1 (centres undefined)
GHS category: 4

CC(=O)OC1C(N2CCCC2)CC2C3CCC4CC(O)C(N5CCOCC5)CC4(C)C3CCC21C (centres undefined)
GHS category: 5

c1ccc(OCCOc2ccccc2)cc1
GHS category: 5

CN1C(C(=O)Nc2ccc(O)cn2)=C(O)c2sccc2S1(=O)=O
GHS category: 2

C=CC(=C)CC/C=C(\C)CCC=C(C)C
GHS category: 5

CC(=O)C1(Cl)CC1
GHS category: 4

C
GHS category: 5

O=C(c1ccc(Cl)c(Cl)c1)c1ccccc1-c1ncc[nH]1
GHS category: 4

CC12CCC3c4ccc(OC(=O)c5ccccc5)cc4CCC3C1CCC2OC(=O)CO (centres undefined)
GHS category: 5

CCOc1nn(-c2cccc(C(F)(F)F)c2)c2ncccc12
GHS category: 4

C=CCc1cc(C(C)(C)c2ccc(O)c(CC=C)c2)ccc1O
GHS category: 5

CCOP(=S)(OCC)SSSP(=S)(OCC)OCC
GHS category: 5

CCOc1ccc(OC(=O)c2ccccc2OC(N)=O)cc1
GHS category: 5

COC(=O)CC(C(C)=O)C(=O)OC (centres undefined)
GHS category: 5

CCC1COC(Cn2cncn2)(c2cc3cc(Cl)ccc3o2)O1 (centres undefined)
GHS category: 4

CC[C@H](C)[C@@H]1NC(=O)[C@H](Cc2ccc(O)cc2)NC(=O)[C@@H](N)CSSC[C@@H](C(=O)N2CCC[C@H]2C(=O)N[C@@H](CC(C)C)C(=O)NCC(N)=O)NC(=O)[C@H](CC(N)=O)NC(=O)[C@H](CCC(N)=O)NC1=O
GHS category: 2

CC(=O)OC1CN(C)C(=O)N1c1cc(C(C)(C)C)no1 (centres undefined)
GHS category: 4

CO[C@@]1(NC(=O)C(C(=O)O)c2ccc(O)cc2)C(=O)N2C(C(=O)O)=C(CSc3nnnn3C)CO[C@@H]21 (some centres undefined)
GHS category: 5

COc1ccc2c(c1)CCN(c1ccccc1)C2c1ccc(OCc2ccccc2)cc1 (centres undefined)
GHS category: 4

CC1=NN(c2cccc(S(=O)(=O)O)c2)C(=O)C1
GHS category: 5

CNC(=O)C(=NNc1ccc([N+](=O)[O-])cc1OC)C(C)=O
GHS category: 5

CCCCn1c(C)c(C(=O)NC2CCN(CCc3ccccc3)CC2)c2cc(O)ccc21
GHS category: 5

CCOC(=O)/C=C(C)/C=C/C=C(C)/C=C/c1c(C)cc(OC)c(C)c1C
GHS category: 5

CO[C@H]1C=CO[C@@]2(C)Oc3c(C)c(O)c4c(O)c(c5c(nc6cc(C)ccn65)c4c3C2=O)NC(=O)C(C)=CC=C[C@H](C)[C@H](O)[C@@H](C)[C@@H](O)[C@@H](C)[C@H](OC(C)=O)[C@@H]1C
GHS category: 5

COc1cc(OC)c(NC(=O)c2cc3ccccc3cc2O)cc1Cl
GHS category: 5

CC(C)=CCOc1ccc(/C=C/C(=O)c2ccc(OCC=C(C)C)cc2OCC(=O)O)cc1
GHS category: 5

O=C1CC(=O)NC(=O)N1
GHS category: 5

Cc1c(C)c2c(c(C)c1OC(=O)c1cccnc1)CC[C@@](C)(CCC[C@H](C)CCC[C@H](C)CCCC(C)C)O2 (racemic)
GHS category: 5

O=C1CC(Nc2ccc(Cl)cc2Cl)=NN1c1c(Cl)cc(Cl)cc1Cl
GHS category: 5

O=CCCc1ccccc1
GHS category: 5

CN1CC(O)C2=C/C(=N/NC(N)=O)C(=O)C=C21 (centres undefined)
GHS category: 5

N=C1C=CC2=CC(S(=O)(=O)O)=CC(=O)C2=C1NNc1ccc(-c2ccc(N=Nc3cc(S(=O)(=O)O)c4ccccc4c3N)cc2)cc1
GHS category: 5

CCC(C)n1ncn(-c2ccc(N3CCN(c4ccc(OC[C@H]5CO[C@](Cn6cncn6)(c6ccc(Cl)cc6Cl)O5)cc4)CC3)cc2)c1=O (some centres undefined)
GHS category: 4

Oc1cc(O)c2c(c1)O[C@H](c1ccc(O)c(O)c1)[C@@H](O)C2
GHS category: 5

CCN(CC)c1ccc(C=NN(c2ccccc2)c2ccccc2)cc1
GHS category: 5

O=C(NC(=O)c1c(F)cccc1F)Nc1cc(Cl)c(OC(F)(F)C(F)F)c(Cl)c1
GHS category: 5
